The source of these data is the Kinase Knowledgebase extract (Sharma et al. 2016).

Some results are limits rather than exact numbers.

The test concerns the target CDK2 (human) (UniProt P24941). The test is described as follows: Enzyme Assay.
Compound `CCc1cc(-c2nc(-c3cc4ccccc4[nH]c3=O)cs2)ccn1` had an IC50 of less than 1000 nM.

`C=CCN(c1nc(-c2cc3ccccc3[nH]c2=O)cs1)S(=O)(=O)c1ccccc1`: the IC50 was less than 1000 nM.

`COC(=O)c1cccc2[nH]c(=O)c(-c3csc(-c4ccncc4)n3)cc12`: the IC50 was less than 1000 nM.

With `CN1CCN(Cc2ccc3cc(-c4csc(-c5ccncc5)n4)c(=O)[nH]c3c2)CC1`, the IC50 was less than 1000 nM.

The compound `CCNCCNc1ncc2cc(-c3csc(-c4ccncc4)n3)c(=O)[nH]c2n1` gave an IC50 of less than 1000 nM.

In turn, `CN1CCN(C(=O)c2ccc3cc(-c4csc(CS(=O)(=O)c5ccccc5)n4)c(=O)[nH]c3c2)CC1` showed a concentration for half-maximal inhibition (IC50) of less than 1000 nM.

The compound `O=c1[nH]c2cc(C(F)(F)F)ccc2cc1-c1csc(-c2ccncc2)n1` registered a concentration for half-maximal inhibition (IC50) of less than 1000 nM.

Turning to `COc1ccc2cc(-c3csc(-c4ccnc(Cl)c4)n3)c(=O)[nH]c2c1`, the IC50 was less than 1000 nM.

Turning to `CN(c1nc(-c2cc3ccccc3[nH]c2=O)cs1)S(=O)(=O)c1ccc(Br)cc1`, the IC50 was less than 1000 nM.

As to `CC(C)[C@H]1CN(Cc2ccc3cc(-c4csc(CS(=O)(=O)c5ccccc5)n4)c(=O)[nH]c3c2)CCN1`, the IC50 was less than 1000 nM.

Regarding `Nc1c(-c2csc(-c3ccncc3)n2)c(=O)[nH]c2ccccc12`, the IC50 is less than 1000 nM.

`O=c1[nH]c2ccccc2cc1-c1csc(-c2cccc(Cl)c2Cl)n1` showed an IC50 of less than 1000 nM.

Turning to `CN(c1nc(-c2cc3ccccc3[nH]c2=O)cs1)S(=O)(=O)c1cccc(F)c1`, the IC50 was less than 1000 nM.

Take `O=c1[nH]c2ccccc2cc1-c1csc(-c2ccc(-c3csnn3)cc2)n1`: the half-inhibitory concentration (IC50) was less than 1000 nM.

`O=c1[nH]c2cc(CN3CC=CCC3)ccc2cc1-c1csc(CS(=O)(=O)c2ccccc2)n1` showed an IC50 of less than 1000 nM.

With `O=C(c1ccc2cc(-c3csc(CS(=O)(=O)c4ccccc4)n3)c(=O)[nH]c2c1)N1CCOCC1`, the IC50 is less than 1000 nM.

`CC1CN(Cc2ccc3cc(-c4csc(CS(=O)(=O)c5ccccc5)n4)c(=O)[nH]c3c2)CC(C)O1` (stereo not drawn) registered an IC50 of less than 1000 nM.

`CCN(CCN(C)C)Cc1ccc2cc(-c3csc(-c4ccncc4)n3)c(=O)[nH]c2c1` came in with an IC50 of less than 1000 nM.

Consider `O=c1[nH]c2ccccc2cc1-c1csc(-c2ccnc(OCCN3CCCCC3)c2)n1`, for which the IC50 is less than 1000 nM.

Take `CN1CCN(C(=O)c2ccc3cc(-c4csc(N(C)S(=O)(=O)c5ccccc5)n4)c(=O)[nH]c3c2)CC1`: the IC50 is less than 1000 nM.

For the compound `COc1ccc2cc(-c3csc(C(C)(C)S(=O)(=O)c4ccccc4)n3)c(=O)[nH]c2c1`, the IC50 is less than 1000 nM.

With `O=c1[nH]c2cc(CN3CCCCC3)ccc2cc1-c1csc(CS(=O)(=O)c2ccccc2)n1`, the IC50 was less than 1000 nM.

In turn, `O=c1[nH]c2ccccc2cc1-c1csc(CS(=O)(=O)c2ccccc2)n1` returned a half-maximal inhibitory concentration (IC50) of less than 1000 nM.

Regarding `O=c1[nH]c2cc(C(F)(F)F)ccc2cc1-c1csc(CS(=O)(=O)c2ccccc2)n1`, the half-inhibitory concentration (IC50) is less than 1000 nM.

For the compound `COc1ccc(-c2nc(-c3cc4ccccc4[nH]c3=O)cs2)cn1`, the 50% inhibitory concentration (IC50) is less than 1000 nM.

`O=c1ccc(-c2nc(-c3cc4ccccc4[nH]c3=O)cs2)c[nH]1` yielded an IC50 of less than 1000 nM.

With `CC1CN(Cc2ccc3cc(-c4csc(-c5ccncc5)n4)c(=O)[nH]c3c2)CC(C)O1` (stereo not drawn), the IC50 is less than 1000 nM.

In turn, `COc1cc2[nH]c(=O)c(-c3csc(-c4ccncc4)n3)c(N)c2cc1OC` displayed an IC50 of less than 1000 nM.

The compound `CN1CCN(Cc2ccc3cc(-c4csc(CS(=O)(=O)c5ccccc5)n4)c(=O)[nH]c3c2)CC1` showed an IC50 of less than 1000 nM.

`CCN(CCN(C)C)C(=O)c1ccc2cc(-c3csc(-c4ccncc4)n3)c(=O)[nH]c2c1` showed an IC50 of less than 1000 nM.

As to `O=c1[nH]c2cc(CN3CCC(O)CC3)ccc2cc1-c1csc(-c2ccncc2)n1`, the IC50 was less than 1000 nM.

`O=c1[nH]c2ccccc2cc1-c1csc(-c2ccnc(NCCCO)c2)n1` yielded an IC50 of less than 1000 nM.

The compound `Nc1c(-c2csc(-c3ccncc3)n2)c(=O)[nH]c2ccc(Cl)cc12` returned an IC50 of less than 1000 nM.

As to `CCN(CC)CCN(C)c1ncc2cc(-c3csc(-c4ccncc4)n3)c(=O)[nH]c2n1`, the IC50 was less than 1000 nM.

The compound `CC1CCCN(Cc2ccc3cc(-c4csc(-c5ccncc5)n4)c(=O)[nH]c3c2)C1` (stereo not drawn) returned an IC50 of less than 1000 nM.

In the case of `Cc1onc(-c2ccccc2)c1-c1csc(-c2cc3ccccc3[nH]c2=O)n1`, the IC50 was less than 1000 nM.

As to `O=c1[nH]c2cc(CNC3CCCC3)ccc2cc1-c1csc(-c2ccncc2)n1`, the IC50 was less than 1000 nM.

The compound `O=c1[nH]c2ccccc2cc1-c1csc(CS(=O)(=O)c2cccs2)n1` yielded an IC50 of less than 1000 nM.

As to `CC(C)NCc1ccc2cc(-c3csc(-c4ccncc4)n3)c(=O)[nH]c2c1`, the IC50 is less than 1000 nM.

In turn, `CSc1ncc2cc(-c3csc(-c4ccncc4)n3)c(=O)[nH]c2n1` showed an IC50 of less than 1000 nM.

`CC1CN(Cc2ccc3cc(-c4csc(CS(=O)(=O)c5ccccc5)n4)c(=O)[nH]c3c2)CCN1` (stereo not drawn) came in with an IC50 of less than 1000 nM.

The compound `CSc1nc2[nH]c(=O)c(-c3csc(-c4ccncc4)n3)cc2s1` returned an IC50 of less than 1000 nM.

In turn, `CC1CN(Cc2ccc3cc(-c4csc(-c5ccncc5)n4)c(=O)[nH]c3c2)CCN1` (stereo not drawn) came in with an IC50 of less than 1000 nM.

Consider `CC1CC(C)CN(Cc2ccc3cc(-c4csc(-c5ccncc5)n4)c(=O)[nH]c3c2)C1` (stereo not drawn), for which the IC50 is less than 1000 nM.

With `Nc1c(-c2csc(-c3ccncc3)n2)c(=O)[nH]c2ccc(N3CCCCC3)cc12`, the IC50 is less than 1000 nM.

In the case of `O=C(c1ccc2cc(-c3csc(-c4ccncc4)n3)c(=O)[nH]c2c1)N1CCCCC1`, the IC50 was less than 1000 nM.

`O=c1[nH]c2cc(O)ccc2cc1-c1csc(CS(=O)(=O)c2ccccc2)n1` gave an IC50 of less than 1000 nM.

`CC(C)NC[C@H]1CCCN1Cc1ccc2cc(-c3csc(CS(=O)(=O)c4ccccc4)n3)c(=O)[nH]c2c1` had an IC50 of less than 1000 nM.

In turn, `CCN(CC)Cc1ccc2cc(-c3csc(CS(=O)(=O)c4ccccc4)n3)c(=O)[nH]c2c1` gave a concentration for half-maximal inhibition (IC50) of less than 1000 nM.

Consider `CCN(CC)CCN(C)Cc1ccc2cc(-c3csc(-c4ccncc4)n3)c(=O)[nH]c2c1`, for which the IC50 was less than 1000 nM.

`O=c1[nH]c2ccccc2cc1-c1csc(-c2ccnc(N3CCCCC3)c2)n1` showed an IC50 of less than 1000 nM.

`O=c1[nH]c2cc(CO)ccc2cc1-c1csc(-c2ccncc2)n1` showed an IC50 of less than 1000 nM.

`O=c1[nH]c2cc(CN3CCC3)ccc2cc1-c1csc(-c2ccncc2)n1` yielded an IC50 of less than 1000 nM.

`CC1CC(C)CN(Cc2ccc3cc(-c4csc(CS(=O)(=O)c5ccccc5)n4)c(=O)[nH]c3c2)C1` (stereo not drawn): the concentration for half-maximal inhibition (IC50) is less than 1000 nM.

In turn, `O=c1[nH]c2cc(CN3CCCC3)ccc2cc1-c1csc(-c2ccncc2)n1` gave a concentration for half-maximal inhibition (IC50) of less than 1000 nM.

In the case of `O=c1[nH]c2cc(CN3CCCC(O)C3)ccc2cc1-c1csc(-c2ccncc2)n1` (stereo not drawn), the IC50 is less than 1000 nM.

`O=c1[nH]c2ccccc2cc1-c1nc(-c2cccc([N+](=O)[O-])c2)cs1` returned an IC50 of less than 1000 nM.

In turn, `O=c1[nH]c2ccccc2cc1-c1csc(-c2ccncc2)n1` yielded an IC50 of less than 1000 nM.

`O=c1[nH]c2ccc(F)cc2cc1-c1csc(-c2ccncc2)n1` displayed an IC50 of less than 1000 nM.

`Nc1nc(-c2ccncc2)ncc1-c1nc(-c2cc3ccccc3[nH]c2=O)cs1` showed a concentration for half-maximal inhibition (IC50) of less than 1000 nM.

Turning to `CC(C)N(C)Cc1ccc2cc(-c3csc(CS(=O)(=O)c4ccccc4)n3)c(=O)[nH]c2c1`, the IC50 was less than 1000 nM.

`O=c1[nH]c2cc(CN3CCC(O)C3)ccc2cc1-c1csc(-c2ccncc2)n1` (stereo not drawn) displayed a half-maximal inhibitory concentration (IC50) of less than 1000 nM.

The compound `CN1CCN(C(=O)c2ccc3cc(-c4csc(-c5ccncc5)n4)c(=O)[nH]c3c2)CC1` yielded an IC50 of less than 1000 nM.

The compound `O=c1[nH]c2cc(CN3CCCCC3)ccc2cc1-c1csc(-c2ccncc2)n1` had an IC50 of less than 1000 nM.

Compound `CC(C)(c1nc(-c2cc3ccccc3[nH]c2=O)cs1)S(=O)(=O)c1ccccc1` had an IC50 of less than 1000 nM.

In the case of `COC(=O)c1ccc2cc(-c3csc(N(C)S(=O)(=O)c4ccccc4)n3)c(=O)[nH]c2c1`, the IC50 was less than 1000 nM.

`CN(c1nc(-c2cc3ccc(C(=O)O)cc3[nH]c2=O)cs1)S(=O)(=O)c1ccccc1` came in with an IC50 of less than 1000 nM.

Compound `O=c1[nH]c2ccccc2cc1-c1csc(C[S+]([O-])c2ccccc2)n1` (stereo not drawn) displayed a half-inhibitory concentration (IC50) of less than 1000 nM.

For `Nc1ccc(-c2nc(-c3cc4ccccc4[nH]c3=O)cs2)cc1`, the IC50 is less than 1000 nM.

With `O=c1[nH]c2ccccc2cc1-c1nc(-c2ccncc2)cs1`, the IC50 is less than 1000 nM.

The compound `CN(C)CCOc1ccc2cc(-c3csc(-c4ccncc4)n3)c(=O)[nH]c2c1` showed an IC50 of less than 1000 nM.

Regarding `O=c1[nH]c2cc3c(cc2cc1-c1csc(-c2ccncc2)n1)OCO3`, the IC50 was less than 1000 nM.

With `O=c1[nH]c2ccccc2cc1-c1csc(CS(=O)(=O)c2ccccn2)n1`, the IC50 was less than 1000 nM.

Consider `CCc1cc(-c2nc(-c3cc4cc(Cl)ccc4[nH]c3=O)cs2)ccn1`, for which the IC50 is less than 1000 nM.

With `O=C(c1ccc2cc(-c3csc(CS(=O)(=O)c4ccccc4)n3)c(=O)[nH]c2c1)N1CCCCC1`, the IC50 was less than 1000 nM.

The compound `O=c1[nH]c2cc(CO)ccc2cc1-c1csc(CS(=O)(=O)c2ccccc2)n1` yielded an IC50 of less than 1000 nM.

Take `O=c1[nH]c2ccccc2cc1-c1csc(-c2cccnc2)n1`: the IC50 is less than 1000 nM.

In turn, `CCN(CC)C(=O)c1ccc2cc(-c3csc(N(C)S(=O)(=O)c4ccccc4)n3)c(=O)[nH]c2c1` returned an IC50 of less than 1000 nM.

Regarding `O=c1[nH]c2cc(CN3CCOCC3)ccc2cc1-c1csc(-c2ccncc2)n1`, the IC50 was less than 1000 nM.

For the compound `CCN(CC)Cc1ccc2cc(-c3csc(-c4ccncc4)n3)c(=O)[nH]c2c1`, the IC50 is less than 1000 nM.

Compound `CC1CCCN(Cc2ccc3cc(-c4csc(CS(=O)(=O)c5ccccc5)n4)c(=O)[nH]c3c2)C1` (stereo not drawn) yielded an IC50 of less than 1000 nM.

Consider `O=c1[nH]c2cc(C(F)(F)F)ccc2cc1-c1csc(CS(=O)(=O)c2cccs2)n1`, for which the IC50 was less than 1000 nM.

`CC(C)CNCc1ccc2cc(-c3csc(-c4ccncc4)n3)c(=O)[nH]c2c1` registered an IC50 of less than 1000 nM.

`CCN(CC)C(=O)c1cccc2[nH]c(=O)c(-c3csc(-c4ccncc4)n3)cc12` registered an IC50 of less than 1000 nM.

Compound `CCN(CC)CCOc1cc(-c2nc(-c3cc4ccccc4[nH]c3=O)cs2)ccn1` came in with an IC50 of less than 1000 nM.

Compound `COc1ccc2cc(-c3csc(CS(=O)(=O)c4ccccc4)n3)c(=O)[nH]c2c1` returned a concentration for half-maximal inhibition (IC50) of less than 1000 nM.

As to `CN1CCN(c2ccc3[nH]c(=O)c(-c4csc(-c5ccncc5)n4)c(N)c3c2)CC1`, the IC50 was less than 1000 nM.

For `CN(c1nc(-c2cc3ccccc3[nH]c2=O)cs1)S(=O)(=O)c1ccccc1`, the concentration for half-maximal inhibition (IC50) is less than 1000 nM.

The term IC50 denotes the concentration that inhibits the measured activity by half. A lower IC50 goes with greater potency in that assay.
